Test results published in patent publication US9604931B2, “Nuclear receptor binding agents” (GTx, Inc., priority 2007, dated 2017).

System: LNCaP prostate cancer cells
Assay: 3H thymidine incorporation, LNCaP cells
Format: cell-based
Conditions: 6 days treatment
Method: The effects of treatment of an ER-β selective NRBA of this invention on cancer cell proliferation was examined using LNCaP prostate cancer cells and C-26 colon cancer cells. LNCaP or C-26 cells were plated in growth medium in 24 well and 6 well plates, respectively. LNCaP cells were treated for 6 days and C-26 cells were treated for 3 days at the indicated concentration. ^3H thymidine incorporation was measured at the end of treatment as an indicator of cell proliferation.

Compound: O=c1c2c(O)cc(O)cc2c(Br)cn1-c1ccc(O)cc1 [12u, 4-bromo-6,8-dihydroxy-2-(4-hydroxyphenyl)isoquinolin-1(2H)-one]
- Growth of LNCaP prostate cancer cells: significantly inhibited
